From patent US9422359B2, “GPCR fusion protein containing an N-terminal autonomously folding stable domain, and crystals of the same” (The Board of Trustees of the Leland Stanford Junior …, priority 2011, dated 2016)

Key:
[1] = target: T1, R:G complex (Bos taurus, UniProt P04896); test: Analytical gel filtration, stability of the R:G complex
T1 construct: HA signal peptide (N); made in house; host or cells: receptor: Sf9 insect cells (baculovirus); Gs subunits: HighFive insect cells
Description: […]. Nature 2011 469, 175-180). To maintain the high-affinity nucleotide-free state of the complex, apyrase (25 mU/ml, NEB) was added after 90 min to hydrolyze residual GDP released from G ? supon binding to the receptor. GMP resulting from hydrolysis of GDP by apyrase has very poor affinity for the G protein in the complex.
At this stage the mixture contains the R:G complex, non-functional Gs, and an excess of β2AR. […] To prevent cysteine bridge-mediated aggregation of R:G complexes, 100 μM TCEP was added to the eluted protein prior to concentrating it with a 50 kDa MWCO Millipore concentrator. Of note, it was discovered later that crystal growth improved at even higher TCEP concentrations (above 1 mM) compared to 100 μM TCEP, and that the integrity of the R:G complex in MNG-3 was stable to 10 mM TCEP as measured by gel filtration analysis (FIG. 21C). In contrast, DDM-solubilized β2AR loses its ability to bind the high-affinity antagonist ^3H-dihydroalprenolol in 10 mM TCEP (data not shown), probably due to disruption of extracellular disulfide bonds. Iodoacetamide could not be used to block reactive cysteines on Gs alpha and beta subunits as it caused dissociation of the R:G complex (figure S9b). […] Peak fractions were pooled (FIG. 17b) and concentrated to approximately 90 mg ml^−1 with a 100 kDa MWCO Viva-spin concentrator and analyzed by SDS-PAGE/Coomassie brilliant blue staining (FIG. 17a) and gel filtration (FIG. 17c). To confirm a pure, homogeneous, and dephosphorylated preparation, the R:G complex was routinely analyzed by ion exchange chromatography (FIG. 17d).

[2] = target: T2, T4L-β2AR (Homo sapiens, UniProt P07550, M96T/M98T/N187E); test: Ligand binding affinity of T4L-β2AR with M96T, M98T mutations
T2 construct: HA signal peptide (N, cleaved yes); made in house; host or cells: Sf9 insect cells, recombinant baculovirus
Source text: To increase the probability of obtaining crystals of the R:G complex two strategies were used to increase the polar surface area on the extracellular side of the receptor. […] The PNGaseF-inaccessible glycosylation site of the β2AR at N187 was mutated to Glu.

T1 sequence (P04896 1-380 isoform P04896-2, one chain of several): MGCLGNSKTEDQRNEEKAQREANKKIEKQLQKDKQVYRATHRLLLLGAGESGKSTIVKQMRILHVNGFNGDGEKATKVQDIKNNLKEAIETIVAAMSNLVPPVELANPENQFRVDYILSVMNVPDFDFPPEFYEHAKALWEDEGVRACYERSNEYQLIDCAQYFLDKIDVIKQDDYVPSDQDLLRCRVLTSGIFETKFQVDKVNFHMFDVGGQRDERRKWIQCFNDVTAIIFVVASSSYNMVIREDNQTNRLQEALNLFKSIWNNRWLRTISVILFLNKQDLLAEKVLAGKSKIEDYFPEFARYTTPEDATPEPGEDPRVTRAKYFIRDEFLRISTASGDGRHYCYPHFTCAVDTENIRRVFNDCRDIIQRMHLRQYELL

## Nc1nc2c(ncn2[C@@H]2O[C@H](COP(=O)(O)OP(=O)(O)O)[C@@H](O)[C@H]2O)c(=O)[nH]1 [GDP]
[1]; nucleotides at 0.1 mM
  effect on the R:G complex: cause dissociation of the R:G complex

## Nc1nc2c(ncn2[C@@H]2O[C@H](COP(=O)(O)OP(=O)(O)OP(O)(O)=S)[C@@H](O)[C@H]2O)c(=O)[nH]1 [GTPγS]
[1]; nucleotides at 0.1 mM
  effect on the R:G complex: cause dissociation of the R:G complex

## CCCc1ccccc1OCC(O)CNC(C)C (centres unmarked) [[3H]-Dihydroalprenolol, dihydroalprenolol]
[2]
  effect of the threonine mutations (M96T, M98T) on ligand binding affinity: did not affect ligand binding affinity

## NC(=O)CI [iodoacetamide]
[1]; 5 mM for 20 hrs at 20° C.
  effect on the R:G complex: led to dissociation of the complex

## O=P(O)(O)OP(=O)(O)O [pyrophosphate]
[1]; phosphates used at 5 mM
  effect on the R:G complex: do not cause disruption of the complex
